≈ marks a conversion by molar mass, not a printed value.
How the values were obtained:
Streptococcus mutans [1] = assay: Antibacterial activity against Streptococcus mutans ATCC 25175 assessed as effect on planktonic growth at 5.5 ug/ml after 20 hrs relative to control; format: functional
Staphylococcus aureus [2] = assay: Antibacterial activity against Staphylococcus aureus ATCC 25923 assessed as effect on planktonic growth at 1.37 ug/ml after 20 hrs relative to control; format: functional
Staphylococcus aureus [3] = assay: Antibacterial activity against Staphylococcus aureus ATCC 25923 assessed as effect on planktonic growth at 5.5 ug/ml after 20 hrs relative to control; format: functional
Streptococcus mutans [4] = assay: Antibacterial activity against Streptococcus mutans ATCC 25175 assessed as inhibition of biofilm formation at 44 ug/ml after 20 hrs by crystal-violet staining method relative to control; format: functional; settings: ATCC 25175, 20 h
Streptococcus mutans [5] = assay: Antibacterial activity against Streptococcus mutans ATCC 25175 assessed as effect on planktonic growth at 43.8 ug/ml after 20 hrs relative to control; format: functional
Pseudomonas aeruginosa [6] = assay: Antibacterial activity against Pseudomonas aeruginosa ATCC 27853 assessed as effect on planktonic growth at 5.5 ug/ml after 20 hrs relative to control; format: functional
[7] = system: Staphylococcus epidermidis; assay: Antibacterial activity against Staphylococcus epidermidis ATCC 35547 assessed as effect on planktonic growth at 5.5 ug/ml after 20 hrs relative to control; format: functional
Staphylococcus aureus [8] = assay: Antibacterial activity against Staphylococcus aureus ATCC 25923 assessed as effect on planktonic growth at 87.5 ug/ml after 20 hrs relative to control; format: functional
[9] = system: Staphylococcus epidermidis; assay: Antibacterial activity against Staphylococcus epidermidis ATCC 35547 assessed as effect on planktonic growth at 43.8 ug/ml after 20 hrs relative to control; format: functional
[10] = system: Staphylococcus epidermidis; assay: Antibacterial activity against Staphylococcus epidermidis ATCC 35547 assessed as effect on planktonic growth at 0.34 ug/ml after 20 hrs relative to control; format: functional
Pseudomonas aeruginosa [11] = assay: Antibacterial activity against Pseudomonas aeruginosa ATCC 27853 assessed as effect on planktonic growth at 1.37 ug/ml after 20 hrs relative to control; format: functional
Pseudomonas aeruginosa [12] = assay: Antibacterial activity against Pseudomonas aeruginosa ATCC 27853 assessed as effect on planktonic growth at 21.9 ug/ml after 20 hrs relative to control; format: functional
Streptococcus mutans [13] = assay: Antibacterial activity against Streptococcus mutans ATCC 25175 assessed as effect on planktonic growth at 0.17 ug/ml after 20 hrs relative to control; format: functional
Pseudomonas aeruginosa [14] = assay: Antibacterial activity against Pseudomonas aeruginosa ATCC 27853 assessed as effect on planktonic growth at 87.5 ug/ml after 20 hrs relative to control; format: functional
Staphylococcus aureus [15] = assay: Antibacterial activity against Staphylococcus aureus ATCC 25923 assessed as inhibition of biofilm formation after 20 hrs by crystal-violet staining method; format: functional, organism-based; settings: ATCC 25923, 20 h
[16] = system: Staphylococcus epidermidis; assay: Antibacterial activity against Staphylococcus epidermidis ATCC 35547 assessed as effect on planktonic growth at 0.68 ug/ml after 20 hrs relative to control; format: functional
Pseudomonas aeruginosa [17] = assay: Antibacterial activity against Pseudomonas aeruginosa ATCC 27853 assessed as inhibition of biofilm formation after 20 hrs by crystal-violet staining method; format: functional, organism-based
Pseudomonas aeruginosa [18] = assay: Antibacterial activity against Pseudomonas aeruginosa ATCC 27853 assessed as effect on planktonic growth at 0.17 ug/ml after 20 hrs relative to control; format: functional
[19] = system: Staphylococcus epidermidis; assay: Antibacterial activity against Staphylococcus epidermidis ATCC 35547 assessed as effect on planktonic growth at 0.17 ug/ml after 20 hrs relative to control; format: functional
[20] = system: Staphylococcus epidermidis; assay: Antibacterial activity against Staphylococcus epidermidis ATCC 35547 assessed as effect on planktonic growth at 1.37 ug/ml after 20 hrs relative to control; format: functional
Pseudomonas aeruginosa [21] = assay: Antibacterial activity against Pseudomonas aeruginosa ATCC 27853 assessed as effect on planktonic growth at 0.68 ug/ml after 20 hrs relative to control; format: functional
[22] = system: Staphylococcus epidermidis; assay: Antibacterial activity against Staphylococcus epidermidis ATCC 35547 assessed as effect on planktonic growth at 10.9 ug/ml after 20 hrs relative to control; format: functional
Streptococcus mutans [23] = assay: Antibacterial activity against Streptococcus mutans ATCC 25175 assessed as inhibition of biofilm formation after 20 hrs by crystal-violet staining method; format: functional; settings: ATCC 25175, 20 h
Streptococcus mutans [24] = assay: Antibacterial activity against Streptococcus mutans ATCC 25175 assessed as effect on planktonic growth at 1.37 ug/ml after 20 hrs relative to control; format: functional
Staphylococcus aureus [25] = assay: Antibacterial activity against Staphylococcus aureus ATCC 25923 assessed as effect on planktonic growth at 21.9 ug/ml after 20 hrs relative to control; format: functional
Streptococcus mutans [26] = assay: Antibacterial activity against Streptococcus mutans ATCC 25175 assessed as effect on planktonic growth at 0.34 ug/ml after 20 hrs relative to control; format: functional
Pseudomonas aeruginosa [27] = assay: Antibacterial activity against Pseudomonas aeruginosa ATCC 27853 assessed as effect on planktonic growth at 0.34 ug/ml after 20 hrs relative to control; format: functional
Pseudomonas aeruginosa [28] = assay: Antibacterial activity against Pseudomonas aeruginosa ATCC 27853 assessed as effect on planktonic growth at 43.8 ug/ml after 20 hrs relative to control; format: functional
Streptococcus mutans [29] = assay: Antibacterial activity against Streptococcus mutans ATCC 25175 assessed as effect on planktonic growth at 10.9 ug/ml after 20 hrs relative to control; format: functional
Streptococcus mutans [30] = assay: Antibacterial activity against Streptococcus mutans ATCC 25175 assessed as effect on planktonic growth at 87.5 ug/ml after 20 hrs relative to control; format: functional
Staphylococcus aureus [31] = assay: Antibacterial activity against Staphylococcus aureus ATCC 25923 assessed as effect on planktonic growth at 43.8 ug/ml after 20 hrs relative to control; format: functional
Staphylococcus aureus [32] = assay: Antibacterial activity against Staphylococcus aureus ATCC 25923 assessed as effect on planktonic growth at 2.73 ug/ml after 20 hrs relative to control; format: functional
[33] = system: Staphylococcus epidermidis; assay: Antibacterial activity against Staphylococcus epidermidis ATCC 35547 assessed as inhibition of biofilm formation after 20 hrs by crystal-violet staining method; format: functional, organism-based; settings: for IC50: ATCC 35547, 20 h
Streptococcus mutans [34] = assay: Antibacterial activity against Streptococcus mutans ATCC 25175 assessed as effect on planktonic growth at 0.68 ug/ml after 20 hrs relative to control; format: functional
Streptococcus mutans [35] = assay: Antibacterial activity against Streptococcus mutans ATCC 25175 assessed as effect on planktonic growth at 2.73 ug/ml after 20 hrs relative to control; format: functional
Staphylococcus aureus [36] = assay: Antibacterial activity against Staphylococcus aureus ATCC 25923 assessed as effect on planktonic growth at 10.9 ug/ml after 20 hrs relative to control; format: functional
[37] = system: Staphylococcus epidermidis; assay: Antibacterial activity against Staphylococcus epidermidis ATCC 35547 assessed as effect on planktonic growth at 21.9 ug/ml after 20 hrs relative to control; format: functional
Streptococcus mutans [38] = assay: Antibacterial activity against Streptococcus mutans ATCC 25175 assessed as effect on planktonic growth at 21.9 ug/ml after 20 hrs relative to control; format: functional
Pseudomonas aeruginosa [39] = assay: Antibacterial activity against Pseudomonas aeruginosa ATCC 27853 assessed as effect on planktonic growth at 2.73 ug/ml after 20 hrs relative to control; format: functional
Staphylococcus aureus [40] = assay: Antibacterial activity against Staphylococcus aureus ATCC 25923 assessed as effect on planktonic growth at 0.34 ug/ml after 20 hrs relative to control; format: functional
Staphylococcus aureus [41] = assay: Antibacterial activity against Staphylococcus aureus ATCC 25923 assessed as effect on planktonic growth at 0.68 ug/ml after 20 hrs relative to control; format: functional
Pseudomonas aeruginosa [42] = assay: Antibacterial activity against Pseudomonas aeruginosa ATCC 27853 assessed as effect on planktonic growth at 10.9 ug/ml after 20 hrs relative to control; format: functional
Staphylococcus aureus [43] = assay: Antibacterial activity against Staphylococcus aureus ATCC 25923 assessed as effect on planktonic growth at 0.17 ug/ml after 20 hrs relative to control; format: functional
[44] = system: Staphylococcus epidermidis; assay: Antibacterial activity against Staphylococcus epidermidis ATCC 35547 assessed as effect on planktonic growth at 2.73 ug/ml after 20 hrs relative to control; format: functional
[45] = system: Staphylococcus epidermidis; assay: Antibacterial activity against Staphylococcus epidermidis ATCC 35547 assessed as effect on planktonic growth at 87.5 ug/ml after 20 hrs relative to control; format: functional
Pseudomonas aeruginosa [46] = assay: Induction of biofilm formation in Pseudomonas aeruginosa ATCC 27853 at 87.5 ug/ml after 20 hrs by crystal-violet staining method relative to control; format: organism-based

COc1ccccc1C1=C(Br)C(=O)N(CC(C)C)/C1=C/c1ccc(C(F)(F)F)cc1 gave an Activity (Streptococcus mutans [1]) of -15.8%, an Activity (Staphylococcus aureus [2]) of -14.9% and an Activity (Staphylococcus aureus [3]) of -18.5%. For the same molecule, the inhibition at 44 µg/mL (Streptococcus mutans [4]) was 88.8%, the Activity (Streptococcus mutans [5]) was -55.3% and the Activity (Pseudomonas aeruginosa [6]) was -15.8%. It also gave an Activity [7] of 1%, an Activity (Staphylococcus aureus [8]) of 91% and an Activity [9] of 40.1%. It also gave an Activity [10] of -2.2%, an Activity (Pseudomonas aeruginosa [11]) of -10.4% and an Activity (Pseudomonas aeruginosa [12]) of 9.1%. It also gave an Activity (Streptococcus mutans [13]) of 7.9%, an Activity (Pseudomonas aeruginosa [14]) of 30.6% and an IC50 (Staphylococcus aureus [15]) of 95.1 µM. For the same molecule, the Activity [16] was -10.2%, the inhibition (Pseudomonas aeruginosa [17]) was “Dose-dependent effect” and the IC50 (Pseudomonas aeruginosa [17]; ATCC 27853, 20 h) was 25.2 µg/mL (≈ 52.5 µM). The Activity (Pseudomonas aeruginosa [18]) was -2.3%, the Activity [19] was -16.7% and the Activity [20] was 1.1%. For the same molecule, the Activity (Pseudomonas aeruginosa [21]) was -4%, the Activity [22] was 36.6% and the IC50 (Streptococcus mutans [23]) was 58.9 µM. It also gave an Activity (Streptococcus mutans [24]) of 10.6%, an Activity (Staphylococcus aureus [25]) of 4.9% and an Activity (Streptococcus mutans [26]) of -5.4%. It also gave an Activity (Pseudomonas aeruginosa [27]) of -5.2%, an Activity (Pseudomonas aeruginosa [28]) of 34.8% and an Activity (Streptococcus mutans [29]) of -19.3%. The Activity (Streptococcus mutans [30]) was -46.9%, the Activity (Staphylococcus aureus [31]) was 59.8% and the Activity (Staphylococcus aureus [32]) was -21.7%. For the same molecule, the inhibition [33] was “Dose-dependent effect”, the IC50 [33] was 12.2 µg/mL (≈ 25.4 µM) and the Activity (Streptococcus mutans [34]) was 6%. For the same molecule, the Activity (Streptococcus mutans [35]) was -0.8%, the Activity (Staphylococcus aureus [36]) was -3.8% and the Activity [37] was 88.5%. For the same molecule, the Activity (Streptococcus mutans [38]) was -12%, the Activity (Pseudomonas aeruginosa [39]) was -13.1% and the Activity (Staphylococcus aureus [40]) was -1.6%. It also gave an Activity (Staphylococcus aureus [41]) of -5.2%, an Activity (Pseudomonas aeruginosa [42]) of -4.1% and an Activity (Staphylococcus aureus [43]) of 0%. The Activity [44] was -6.4% and the Activity [45] was -5.5%.
In the case of COc1cccc(/C=C2\C(c3cc(Cl)ccc3OC)=C(Br)C(=O)N2CC(C)C)c1, the Activity (Streptococcus mutans [1]) is reported as 8.3%, the Activity (Staphylococcus aureus [2]) is reported as 36.2% and the Activity (Staphylococcus aureus [3]) is reported as 92.3%. It also gave an Activity (Pseudomonas aeruginosa [46]) of 84.6%, an Activity (Streptococcus mutans [5]) of 44.1% and an Activity (Pseudomonas aeruginosa [6]) of 2.8%. For the same molecule, the Activity [7] was 4.1%, the Activity (Staphylococcus aureus [8]) was 9.8% and the Activity [9] was 44.9%. For the same molecule, the Activity [10] was 0.4%, the Activity (Pseudomonas aeruginosa [11]) was -6.6% and the Activity (Pseudomonas aeruginosa [12]) was 19.6%. It also gave an Activity (Streptococcus mutans [13]) of 2.2%, an Activity (Pseudomonas aeruginosa [14]) of 9.6% and an Activity [16] of 0.3%. The inhibition (Pseudomonas aeruginosa [17]) was “Dose-dependent effect”, the Activity (Pseudomonas aeruginosa [18]) was 18% and the Activity [19] was 0.7%. It also gave an Activity [20] of 4.2%, an Activity (Pseudomonas aeruginosa [21]) of 0.3% and an Activity [22] of 12.7%. It also gave an Activity (Streptococcus mutans [24]) of -3.9%, an Activity (Staphylococcus aureus [25]) of 14% and an Activity (Streptococcus mutans [26]) of 6.1%. It also gave an Activity (Pseudomonas aeruginosa [27]) of 2.9%, an Activity (Pseudomonas aeruginosa [28]) of 24.2% and an Activity (Streptococcus mutans [29]) of 17%. The Activity (Streptococcus mutans [30]) was 76.4%, the Activity (Staphylococcus aureus [31]) was 20.4% and the Activity (Staphylococcus aureus [32]) was 34%. The inhibition [33] was “Dose-dependent effect”, the IC50 [33] was > 87.5 µg/mL and the Activity (Streptococcus mutans [34]) was -1.7%. The Activity (Streptococcus mutans [35]) was 3.5%, the Activity (Staphylococcus aureus [36]) was 11.5% and the Activity [37] was 25.4%. For the same molecule, the Activity (Streptococcus mutans [38]) was 14.8%, the Activity (Pseudomonas aeruginosa [39]) was -5.3% and the Activity (Staphylococcus aureus [40]) was 49.8%. The Activity (Staphylococcus aureus [41]) was 39.1%, the Activity (Pseudomonas aeruginosa [42]) was 8.8% and the Activity (Staphylococcus aureus [43]) was 45.5%. It also gave an Activity [44] of 1.5% and an Activity [45] of 45.3%.
